Experimental data as given in PMC9598926, “Design and Synthesis of (Z)-5-(Substituted benzylidene)-3-cyclohexyl-2-thioxothiazolidin-4-one Analogues as Anti-Tyrosinase and Antioxidant Compounds: In Vitro and In Silico Insights” (Antioxidants, 2022).

What was measured:
tyrosinase = test: RT-qPCR of tyrosinase mRNA in α–MSH/IBMX stimulated B16F10 cells; format: cell-based, murine
Experimental: (§1) 2.17. RNA Extraction and Quantitative Real Time-Polymerase Chain Reaction (RT-qPCR)
(§2) B16F10 cells were extracted using GeneAll RiboEx Total RNA extraction reagent (GeneAll Biotechnology, Seoul, Korea) and transferred to tubes, added with chloroform (0.1 mL), shaken vigorously for 30 sec, and centrifuged for 15 min at 12,000× g. Aqueous phases were transferred to fresh tubes, and equal volumes of isopropanol were added. Samples were then incubated at 4 °C for 10 min and centrifuged for 15 min at 12,000× g at 4 °C. Supernatants were discarded, and RNA pellets were washed once with 0.8 mL of 70% ethanol and by vortexing briefly and centrifuged for 5 min at 7500× g at 4 °C. Pellets were dried at 56 °C for 10–15 min and dissolved in 30 µL of diethyl pyrocarbonate (DEPC)-treated water. The levels of RNA were determined by a Nanodrop spectrophotometer (NANO-200, Allsheng, Hangzhou, China). Complementary DNA (cDNA) was synthesized from total RNA (2 µg) using SuPrime Script RT Premix (with random hexamer) cDNA Synthesis Kit (GeNet Bio, Daejeon, Korea). […]
(§3) To further investigate the anti-melanogenesis mechanism of analog 3, we examined its effect on the expressions of melanogenesis-associated genes and levels of melanogenesis-associated proteins in B16F10 cells. […] Nuclear levels of MITF protein were measured by Western blotting in α–MSH/IBMX-stimulated B16F10 cells. […]

TRP-1 = test: RT-qPCR of TRP-1 mRNA in α–MSH/IBMX stimulated B16F10 cells; format: cell-based, murine
Experimental: as §1, §2, §3

What does the source list for `O=C1/C(=C/c2ccc(O)cc2O)SC(=S)N1C1CCCCC1` [Analog 3, (Z)-3-Cyclohexyl-5-(2,4-dihydroxybenzylidene)-2-thioxothiazolidin-4-one]?
effect on expression of tyrosinase (mRNA) (tyrosinase; α–MSH/IBMX stimulated): significantly and concentration-dependently decreased; tyrosinase gene expression (tyrosinase; α–MSH/IBMX stimulated (3.3-fold), 5 µM): 2.6 fold; effect on expression of TRP-1 (mRNA) (TRP-1; α–MSH/IBMX stimulated): significantly and concentration-dependently decreased; TRP-1 gene expression (TRP-1; α–MSH/IBMX stimulated (2.2-fold), 5 µM): 1.3 fold
